According to patent publication US20040019066A1, “Methionine salvage pathway in bacillus” (priority 2002, published 2004):
Entries after “also recorded” stand apart in the source; their conditions may differ.

Test system: B. subtilis 168 and mtn region mutants
Test: Growth on MTR as sole sulfur source (ED1 minimal medium plates)
Assay type: cell-based, Bacillus subtilis
Method: Panel A: ED1 minimal mediums plate with 1 mM IPTG containing 0.2 mM MTR as sole sulfur source WT, metI (BSIP 1143), mtnS (BSHP7010), mtnK (BFS1850), mtnU (BFS1851), mtnV (BSHP7020), mtnW (BSHP7014), mtnX (BFS1852), mtnY (BSHP7016) and mtnZ (BFS 1853) were inoculated for over-night growth at 37° C. No growth of mtnS, mtnK, mtnW and mtnY is represented by an example of absence of growth around a disc with MTR of mtnY mutant in panel B. Normal growth of […] and mtnX is represented by an example of normal growth around a disc with MTR of mtnV mutant in panel C.
Using the collection of mutants constructed during the Bacillus subtilis functional analysis, program (http://locus.jouy.inra.fr/cgi-bin/genmic/madbase/progs/madbase.oper] and http://bacillus.genome.adjp, [9]) and constructing mutants which were not available in the collection, we tested all genes in the region for their phenotype of growth on MTR as the sole sulfur source.
Bacterial strains and plasmids, and growth media: E. coli and B. subtilis strains as well as plasmids used in this work are listed in Table 3. E. coli TG1 and XL1-Blue were used for cloning experiments (TG1 for single cross-over recombination and XL1-Blue for double cross-over recombination). Despite the fact that there are no public regulations yet in this domain in China, all experiments were performed in accordance with the European regulation requirements concerning the contained use of Genetically Modified Organisms of Group-I (French agreement N^o 2735). E. coli and B. subtilis were grown in Luria-Bertani (LB) medium and in ED minimal medium: K2HPO4, 8 mM; KH2PO4, 4,4 mM; glucose, 27 mM; Na3-citrate, 0.3 mM; L-glutamine, 15 mM; L-tryptophan, 0.244 mM; ferric citrate, 33.5 μM; MgSO4, 2 mM; MgCl2, 0.61 mM; CaCl2, 49.5 μM; FeCl3, 49.9 μM; MnCl2, 5.05 μM; ZnCl2, 12.4 μM; CuCl2, 2.52 μM; CoCl2, 2.5 μM; Na2MoO4, 2.48 μM. When methionine was used as sulfur source (1 mM), MgSO4 was replaced by MgCl2 at the same magnesium concentration (2 mM). For assaying growth on plates, either the MgSO4 containing medium or the sulfur-free basal medium was used (MgSO4 was replaced by MgCl2 as described above). In the latter case, 10 [μl of the sulfur source under investigation was applicated onto paper discs (MTR, 200 mM stock solution and methionine, 100 mM stock solution) deposited at the center of the plate, after bacteria had been uniformly spread at the surface of the plate, and growth was measured around the disK. In some cases MTR was used directly in the plate as sulfur source (0.2 mM). When necessary IPTG was included at 1 mM concentration. When xylose was added to the medium (0.5%) in order to trigger the expression of genes under the control of Pxyl inducible promoter, fructose was used as carbon source instead of glucose. LB and ED plates were prepared by addition of 17 g/liter Bacto agar or Agar Noble (Difco), respectively, to the medium. When included, antibiotics were added to the following concentrations: ampicillin, 100 mg/liter; chloramphenicol, 50 mg/liter; spectinomycin, 100 mg/liter; erythromycin plus lincomycin, 1 mg/liter and 25 mg/liter. Bacteria were grown at 37° C. The optical density (OD) of bacterial cultures was measured at 600 nm. MTR was prepared from MTA (Sigma, D5011) by acid hydrolysis as described by Schlenk. 3-fluoromethythiorybose (3F-MM, 5-thio-5-5-S-trifluoromethyl-D-ribose) was synthesised accordingly to [6, 20]. When added directly to the ED1 medium plate, 3F-MTR was used at 100 mg/liter concentration and when applicated onto paper discs 100 mM stock solution was used. For anaerobic growth on plates, the Anaerocult A (Merck) within an anaerobiosis jar for CO2 production with simultanious O2 absorbtion was used. Sulfur-free ED1 minimal medium plates were supplemented to 1% glucose final concentration and with 0.5% sodium pyruvate and 20 mM sodium nitrate as electron acceptor. Plates were incubated at 37° C. for 4 days with the sulfur source under investigation.

Compound: CSC[C@@H](O)[C@@H](O)[C@@H](O)C=O [MTR, methylthioribose]
- Growth on MTR as sole sulfur source (Wild type strain 168, + O2, four days): normal growth after four days
- Growth on MTR as sole sulfur source (Wild type strain 168, anaerobic growth, nitrate as electron acceptor, four days (table row printed '+ O2')): failed to grow; also recorded: no growth after four days
- Use of MTR as the methionine source (methionine auxotrophs): can be used as the methionine source
- Growth on MTR as sole sulfur source (mtnK mutant, strain BFS1850): no growth; also recorded: failed to grow
- Growth on MTR as sole sulfur source (mtnS mutant, strain BSHP7010): no growth; also recorded: failed to grow
- Growth on MTR as sole sulfur source (mtnU mutant, strain BFS1851): failed to grow; also recorded: no growth (numerous revertants)
- Growth on MTR as sole sulfur source (mtnV mutant, strain BSHP7020): normal growth; also recorded: no visible effect on growth
- Growth on MTR (mtnW inactivated with a polar effect on the distal genes): lack of growth
- Growth on MTR as sole sulfur source (mtnW mutant, strain BSHP7014 (downstream genes expressed)): no growth; also recorded: failed to grow
- Growth on MTR as sole sulfur source (mtnX mutant, strain BFS1852, IPTG added): normal growth; also recorded: recovered its growth properties
- Growth on MTR as sole sulfur source (mtnY mutant, strain BSHP7016): no growth; also recorded: failed to grow
- Growth on MTR as sole sulfur source (mtnZ mutant, strain BFS1853): partial growth; also recorded: very weak (residual) growth; also recorded: very weak, residual growth; also recorded: weak residual growth
